The supplement of paper PMC6045584
± gives the standard deviation of the averaged measurements.

Tests used:
[1] = compound: CC(=O)O[C@H]1C(=O)[C@@]2(C)[C@H]([C@H](OC(=O)c3ccccc3)[C@]3(O)C[C@H](OC(=O)[C@H](O)[C@@H](NC(=O)c4ccccc4)c4ccccc4)C(C)=C1C3(C)C)[C@]1(OC(C)=O)CO[C@@H]1C[C@@H]2O [PACLITAXEL]; assay: surviving fraction relative to DMSO-only wells; higher = less growth inhibition; settings: exposure time: 5 days
Outline: (§1)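 Log-phase tumour cell lines, 250–500 cells per well in 384-well plates, received inhibitors at 0.5, 1, 5, 10, 50, 100, 500 and 1000 nM continuously for five days, starting 24 hours after seeding. Viability was quantified with CellTiter-Glo luminescence and normalised to the median of DMSO-only wells to give surviving fraction. Three screens were run per line, and a line stayed in only with replicate Pearson r >0.7 and median Z' >0.3.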

[2] = compound: COc1cc2ncnc(Nc3ccc(F)c(Cl)c3)c2cc1OCCCN1CCOCC1 [GEFITINIB]; assay: as above; settings: exposure time: 5 days
Outline: as §1

Row | Test System | surviving fraction ([1]; 0.5 nM) | surviving fraction ([1]; 1 nM) | surviving fraction ([1]; 5 nM) | surviving fraction ([1]; 10 nM) | surviving fraction ([1]; 50 nM) | surviving fraction ([1]; 100 nM) | surviving fraction ([1]; 500 nM) | surviving fraction ([1]; 1000 nM) | surviving fraction ([2]; 0.5 nM) | surviving fraction ([2]; 1 nM) | surviving fraction ([2]; 5 nM) | surviving fraction ([2]; 10 nM) | surviving fraction ([2]; 50 nM) | surviving fraction ([2]; 100 nM) | surviving fraction ([2]; 500 nM) | surviving fraction ([2]; 1000 nM)
1 | NCIH441 LUNG | 0.961 ± 0.12 | 0.93 ± 0.046 | 0.529 ± 0.0097 | 0.429 ± 0.032 | 0.261 ± 0.013 | 0.303 ± 0.018 | 0.284 ± 0.013 | 0.304 ± 0.02 | 1.17 ± 0.048 | 1.15 ± 0.064 | 1.07 ± 0.089 | 1.114 ± 0.0055 | 1.07 ± 0.18 | 1.12 ± 0.18 | 1.01 ± 0.21 | 0.963 ± 0.058
2 | NY BONE | 0.938 ± 0.019 | 0.334 ± 0.015 | 0.0363 ± 0.0075 | 0.0327 ± 0.005 | 0.0363 ± 0.0055 | 0.026 ± 0.0076 | 0.0307 ± 0.0038 | 0.0293 ± 0.0057 | 0.999 ± 0.032 | 1 ± 0.035 | 1.09 ± 0.036 | 1.06 ± 0.031 | 1.07 ± 0.026 | 1.14 ± 0.016 | 0.998 ± 0.019 | 0.969 ± 0.032
3 | OS25HAL BONE | 0.99 ± 0.023 | 0.993 ± 0.039 | 0.29 ± 0.028 | 0.118 ± 0.007 | 0.077 ± 0.0062 | 0.0677 ± 0.011 | 0.0523 ± 0.0029 | 0.0687 ± 0.017 | 1.04 ± 0.052 | 1.04 ± 0.041 | 1.06 ± 0.035 | 1.09 ± 0.066 | 1.09 ± 0.069 | 1.15 ± 0.019 | 1.08 ± 0.069 | 1.05 ± 0.029
4 | OSHN BONE | 1.03 ± 0.025 | 1.05 ± 0.012 | 0.0353 ± 0.0015 | 0.0313 ± 0.0011 | 0.0273 ± 0.00058 | 0.0243 ± 0.00058 | 0.018 | 0.022 ± 0.001 | 1.1 ± 0.012 | 1.11 ± 0.017 | 1.12 ± 0.013 | 1.13 ± 0.026 | 1.15 ± 0.0076 | 1.15 ± 0.024 | 1.142 ± 0.0066 | 1.11 ± 0.021
5 | PCI30 HEADNECK | 0.721 ± 0.06 | 0.355 ± 0.044 | 0.199 ± 0.022 | 0.114 ± 0.03 | 0.0853 ± 0.011 | 0.0737 ± 0.016 | 0.0753 ± 0.016 | 0.071 ± 0.0061 | 0.996 ± 0.063 | 1.01 ± 0.051 | 1.071 ± 0.0044 | 1.12 ± 0.017 | 0.959 ± 0.095 | 0.842 ± 0.028 | 0.466 ± 0.026 | 0.393 ± 0.033
6 | RDES SOFT TISSUE | 1.099 ± 0.0061 | 1.22 ± 0.22 | 0.189 ± 0.067 | 0.129 ± 0.014 | 0.0673 ± 0.009 | 0.0537 ± 0.0058 | 0.056 ± 0.011 | 0.0623 ± 0.004 | 1.07 ± 0.13 | 1.06 ± 0.15 | 1.05 ± 0.058 | 1.17 ± 0.079 | 1.03 ± 0.26 | 1.22 ± 0.12 | 1.16 ± 0.19 | 1.2 ± 0.14
7 | S68 BREAST | 0.815 ± 0.052 | 0.575 ± 0.13 | 0.197 ± 0.045 | 0.134 ± 0.026 | 0.14 ± 0.0047 | 0.144 ± 0.025 | 0.114 ± 0.0076 | 0.122 ± 0.0061 | 0.936 ± 0.095 | 0.744 ± 0.17 | 1.11 ± 0.34 | 1.09 ± 0.069 | 1.11 ± 0.23 | 0.762 ± 0.093 | 0.728 ± 0.1 | 0.687 ± 0.22
8 | SCC003 HEADNECK | 0.945 ± 0.11 | 0.805 ± 0.075 | 0.324 ± 0.037 | 0.27 ± 0.028 | 0.192 ± 0.01 | 0.196 ± 0.031 | 0.179 ± 0.021 | 0.166 ± 0.018 | 1.02 ± 0.057 | 1.01 ± 0.056 | 1.1 ± 0.027 | 0.995 ± 0.11 | 0.945 ± 0.026 | 0.857 ± 0.035 | 0.54 ± 0.043 | 0.47 ± 0.029
9 | SCC36 HEADNECK | 0.966 ± 0.035 | 0.8 ± 0.0036 | 0.246 ± 0.041 | 0.154 ± 0.042 | 0.103 ± 0.007 | 0.109 ± 0.026 | 0.108 ± 0.006 | 0.114 ± 0.017 | 1.08 ± 0.091 | 1.02 ± 0.023 | 1.13 ± 0.057 | 0.972 ± 0.057 | 0.735 ± 0.11 | 0.643 ± 0.1 | 0.45 ± 0.03 | 0.397 ± 0.05
10 | SCC47 HEADNECK | 1 ± 0.079 | 0.749 ± 0.029 | 0.37 ± 0.015 | 0.199 ± 0.015 | 0.143 ± 0.01 | 0.141 ± 0.0051 | 0.1213 ± 0.00058 | 0.115 ± 0.015 | 1.1 ± 0.034 | 1.1 ± 0.058 | 1.12 ± 0.043 | 1.06 ± 0.053 | 0.993 ± 0.017 | 0.899 ± 0.028 | 0.649 ± 0.018 | 0.602 ± 0.039
11 | SG27 HEADNECK | 0.88 ± 0.066 | 0.899 ± 0.062 | 0.937 ± 0.032 | 0.935 ± 0.056 | 0.888 ± 0.1 | 0.911 ± 0.097 | 1.01 ± 0.04 | 0.849 ± 0.068 | 1.11 ± 0.041 | 1.1 ± 0.074 | 1.03 ± 0.037 | 1.16 ± 0.12 | 1.14 ± 0.13 | 1.12 ± 0.13 | 1.09 ± 0.024 | 1.11 ± 0.016
12 | SG28 HEADNECK | 1.05 ± 0.086 | 0.903 ± 0.13 | 0.645 ± 0.033 | 0.635 ± 0.051 | 0.463 ± 0.072 | 0.505 ± 0.0085 | 0.458 ± 0.02 | 0.487 ± 0.043 | 1.14 ± 0.071 | 1.2 ± 0.037 | 1.06 ± 0.075 | 1.03 ± 0.035 | 0.758 ± 0.069 | 0.679 ± 0.033 | 0.501 ± 0.059 | 0.504 ± 0.016
13 | SG31 HEADNECK | 0.976 ± 0.12 | 0.887 ± 0.06 | 0.455 ± 0.029 | 0.381 ± 0.036 | 0.271 ± 0.037 | 0.252 ± 0.033 | 0.267 ± 0.045 | 0.273 ± 0.028 | 1.14 ± 0.13 | 1.09 ± 0.18 | 1.1 ± 0.28 | 1.11 ± 0.24 | 0.855 ± 0.24 | 0.845 ± 0.23 | 0.732 ± 0.2 | 0.54 ± 0.11
14 | SIHA CERVIX | 0.988 ± 0.031 | 0.948 ± 0.04 | 0.238 ± 0.029 | 0.136 ± 0.014 | 0.0897 ± 0.0031 | 0.0817 ± 0.004 | 0.101 ± 0.0087 | 0.0943 ± 0.014 | 1.01 ± 0.017 | 1.01 ± 0.076 | 1.08 ± 0.053 | 1.07 ± 0.091 | 1.12 ± 0.11 | 1.1 ± 0.059 | 0.99 ± 0.084 | 0.956 ± 0.061
